Source: patent US20070219231A1, “Quinolonecarboxylic acid compounds, preparation methods and pharmaceutical uses thereof” (priority 2005, published 2007)

Assays:
Test in all cases: MIC, two-fold plate dilution method
Type in all cases: cell-based
[1] = tested on: S. pneumoniae 98; design: unit not given here; details: S. pneumoniae 98, Gram-positive; Muener-Hinton medium
Text: (§1) . The pharmaceutically acceptable salts or hydrates thereof have the same antibacterial activity.
(§2) Two-fold plate dilution method is used for determination of activity, with Muener-Hinton medium (DIFCO) as the culture medium and clinically isolated pathogenic strain, quality control strain and standard strain (provided by National Institute for the Control of Pharmaceutical and Biological Products) as test strains.

[2] = tested on: S. aureus ATTC 25923; design: unit not given here; details: S. aureus ATTC 25923, Gram-positive; Muener-Hinton medium
Text: as §2

[3] = tested on: E. coli 26; details: E. coli 26, Gram-negative; Muener-Hinton medium
Text: as §1, §2

[4] = tested on: K. pneumoniae 7; details: K. pneumoniae 7, Gram-negative; Muener-Hinton medium
Text: as §1, §2

[5] = tested on: E. coli ATTC 25922; design: unit not given here; details: E. coli ATTC 25922, Gram-negative; Muener-Hinton medium
Text: as §1, §2

[6] = tested on: K. pneumoniae 14; design: unit not given here; details: K. pneumoniae 14, Gram-negative; Muener-Hinton medium
Text: as §1, §2

[7] = tested on: S. pneumoniae 70; design: unit not given here; details: S. pneumoniae 70, Gram-positive; Muener-Hinton medium
Text: as §1, §2

[8] = tested on: Enterococcus 755; details: Enterococcus 755, Gram-positive; Muener-Hinton medium
Text: as §1, §2

MIC [1]	MIC [2]	SMILES	MIC [3] [g/mL]	MIC [4] [g/mL]	MIC [5]	MIC [6]	MIC [7]	MIC [8] [g/mL]
0.12	0.12	Cl.O=C(O)c1cn(C2CC2)c2c(OC(F)F)c(N3C[C@@H]4CCCN[C@@H]4C3)c(F)cc2c1=O (racemic) [Embodiment 15, 1-Cyclopropyl-8-difluoromethoxyl-7-[cis-2,8-diazabicyclo[4,3,0]nonane-8-yl]-6-fluoro-1,4-dihydro-4-oxoquinoline-3-carboxylic acid hydrochloride]						
0.01		Cl.O=C(O)c1cn(C2CC2)c2c(OC(F)F)c(N3C[C@@H]4CCCN[C@@H]4C3)c(F)cc2c1=O [Embodiment 13, 1-cyclopropyl-8-difluoromethoxyl-7-[(1S,6S)-2,8-diazabicyclo[4,3,0]nonane-8-yl]-6-fluoro-1,4-dihydro-4-oxoquinoline-3-carboxylic acid hydrochloride]	0.01	0.01	0.01	0.01	0.12	
0.01		Cl.O=C(O)c1cn(C2CC2)c2c(OC(F)F)c(N3C[C@H]4CCCN[C@H]4C3)c(F)cc2c1=O [Embodiment 14, 1-cyclopropyl-8-difluoromethoxyl-7-[(1R,6R)-2,8-diazabicyclo[4,3,0]nonane-8-yl]-6-fluoro-1,4-dihydro-4-oxoquinoline-3-carboxylic acid hydrochloride]			0.01			

Further lines, the molecule ahead of its results:

SMILES	MIC [1]	MIC [2]	MIC [3] [g/mL]	MIC [4] [g/mL]	MIC [5]	MIC [6]	MIC [7]	MIC [8] [g/mL]
Nc1c(F)c(N2C[C@@H]3CCCN[C@@H]3C2)c(OC(F)F)c2c1c(=O)c(C(=O)O)cn2C1CC1 (relative stereo) [Embodiment 21, 5-Amino-1-cyclopropyl-8-difluoromethoxyl-7-(cis-2,8-diazabicyclo[4,3,0]nonane-8-yl)-6-fluoro-1,4-dihydro-4-oxoquinoline-3-carboxylic acid]			<0.00					
Cl.Nc1c(F)c(N2C[C@@H]3CCCN[C@@H]3C2)c(OC(F)F)c2c1c(=O)c(C(=O)O)cn2C1CC1 [Embodiment 17, 5-amino-1-cyclopropyl-8-difluoromethoxyl-7-[(1S,6S)-2,8-diazabicyclo[4,3,0]nonane-8-yl]-6-fluoro-1,4-dihydro-4-oxoquinoline-3-carboxylic acid hydrochloride]	0.01		0.01	0.01	0.01	0.01	0.01	0.01
Cl.Nc1c(F)c(N2C[C@H]3CCCN[C@H]3C2)c(OC(F)F)c2c1c(=O)c(C(=O)O)cn2C1CC1 [Embodiment 18, 5-Amino-1-cyclopropyl-8-difluoromethoxyl-7-[(1R,6R)-2,8-diazabicyclo[4,3,0]nonane-8-yl]-6-fluoro-1,4-dihydro-4-oxoquinoline-3-carboxylic acid hydrochloride]	0.12		0.01	0.01	0.01	0.01		
